Measurements from the CheMixHub viscosity set.
± gives the uncertainty stated by the source.

Test: xn = mol fraction of the nth substance listed

C=CC#N + CC(=O)N(C)C
303.15 K, 101.3 kPa
Conditions	viscosity [mPa·s]
x1 = 0.0998	0.8246 ± 0.0053
x1 = 0.1982	0.7637 ± 0.005
x1 = 0.297	0.7048 ± 0.0047
x1 = 0.3941	0.6449 ± 0.0044
x1 = 0.5009	0.5797 ± 0.0041
x1 = 0.5995	0.5228 ± 0.0039
x1 = 0.6984	0.4682 ± 0.0037
x1 = 0.7976	0.4132 ± 0.0034
x1 = 0.9005	0.3591 ± 0.0032

CN(C)c1ccccc1 + CC(=O)O
viscosity [mPa·s], 101 kPa
Conditions	x2 = 0.1008	x2 = 0.201	x2 = 0.3424	x2 = 0.3973	x2 = 0.4957	x2 = 0.5978	x2 = 0.7002	x2 = 0.7928	x2 = 0.8476	x2 = 0.9025
298.15 K	1.363 ± 0.036	1.448 ± 0.038	1.644 ± 0.043	1.757 ± 0.046	2.04 ± 0.054	2.547 ± 0.067	3.352 ± 0.089	4.244 ± 0.11	4.514 ± 0.12	3.819 ± 0.1
318.15 K	0.9835 ± 0.026	1.02 ± 0.027	1.106 ± 0.029	1.16 ± 0.031	1.281 ± 0.034	1.488 ± 0.04	1.831 ± 0.049	2.192 ± 0.059	2.327 ± 0.063	2.085 ± 0.056

C=CC#N + CC(=O)c1ccccc1
308.15 K, 101 kPa
Conditions	viscosity [mPa·s]
x2 = 0.0582	0.3608 ± 0.004
x2 = 0.1109	0.3946 ± 0.0042
x2 = 0.1957	0.4532 ± 0.0047
x2 = 0.2736	0.5132 ± 0.0053
x2 = 0.3939	0.62 ± 0.0062
x2 = 0.4591	0.676 ± 0.0067
x2 = 0.5681	0.7844 ± 0.0076
x2 = 0.6945	0.9222 ± 0.0087
x2 = 0.7954	1.052 ± 0.0099

CN(C)c1ccccc1 + CC(=O)c1ccccc1
viscosity [mPa·s], 101 kPa
Conditions	303.15 K	308.15 K
x1 = 0.0856	1.505 ± 0.054	1.398 ± 0.05
x1 = 0.1502	1.495 ± 0.053	1.387 ± 0.05
x1 = 0.2141	1.48 ± 0.053	1.376 ± 0.049
x1 = 0.2852	1.461 ± 0.052	1.361 ± 0.049
x1 = 0.3521	1.442 ± 0.051	1.346 ± 0.048
x1 = 0.4201	1.42 ± 0.051	1.328 ± 0.048
x1 = 0.5026	1.392 ± 0.05	1.305 ± 0.047
x1 = 0.5892	1.362 ± 0.049	1.279 ± 0.046
x1 = 0.6625	1.335 ± 0.048	1.254 ± 0.045
x1 = 0.7211	1.313 ± 0.047	1.234 ± 0.045
x1 = 0.7908	1.284 ± 0.046	1.207 ± 0.044
x1 = 0.8625	1.253 ± 0.045	1.177 ± 0.043
x1 = 0.9204	1.222 ± 0.044	1.151 ± 0.042

CC(C)(C)Br + CC(C)(C)O
viscosity [mPa·s], 101.3 kPa
Conditions	x1 = 0.1003	x1 = 0.2034	x1 = 0.3015	x1 = 0.4024	x1 = 0.5028	x1 = 0.6049	x1 = 0.705	x1 = 0.7981	x1 = 0.8958
298.15 K	2.648 ± 0.023	1.858 ± 0.017	1.458 ± 0.013	1.208 ± 0.011	1.026 ± 0.0098	0.9136 ± 0.0092	0.8363 ± 0.0088	0.7868 ± 0.0087	0.7483 ± 0.0087
313.15 K	1.504 ± 0.018	1.165 ± 0.012	0.9832 ± 0.0098	0.8491 ± 0.0085	0.7568 ± 0.0076	0.6855 ± 0.0072	0.6408 ± 0.007	0.6119 ± 0.007	0.595 ± 0.0071

CCCCN(CCCC)CCCC + CC(C)(C)O
viscosity [mPa·s], 101 kPa
Conditions	x2 = 0.0998	x2 = 0.2	x2 = 0.3	x2 = 0.4	x2 = 0.5001	x2 = 0.5999	x2 = 0.7	x2 = 0.8	x2 = 0.9006	x2 = 0.9503
303.15 K	1.189 ± 0.015	1.202 ± 0.015	1.267 ± 0.016	1.324 ± 0.016	1.394 ± 0.017	1.499 ± 0.018	1.637 ± 0.02	1.878 ± 0.023	2.323 ± 0.029	2.732 ± 0.033
308.15 K	1.083 ± 0.014	1.108 ± 0.014	1.145 ± 0.014	1.189 ± 0.015	1.242 ± 0.015	1.323 ± 0.016	1.43 ± 0.017	1.598 ± 0.019	1.91 ± 0.023	2.204 ± 0.027
313.15 K	0.9915 ± 0.012	1.009 ± 0.013	1.037 ± 0.013	1.072 ± 0.013	1.112 ± 0.014	1.172 ± 0.014	1.251 ± 0.015	1.376 ± 0.017	1.599 ± 0.019	1.809 ± 0.022
318.15 K	0.9113 ± 0.011	0.9236 ± 0.011	0.9451 ± 0.012	0.9707 ± 0.012	1.003 ± 0.012	1.048 ± 0.013	1.104 ± 0.013	1.197 ± 0.015	1.356 ± 0.016	1.514 ± 0.018
323.15 K	0.8405 ± 0.011	0.8479 ± 0.011	0.8641 ± 0.011	0.8824 ± 0.011	0.908 ± 0.011	0.9401 ± 0.011	0.9817 ± 0.012	1.051 ± 0.013	1.166 ± 0.014	1.288 ± 0.016

CN(C)c1ccccc1 + CC(C)(C)O
303.15 K, 101 kPa
Conditions	viscosity [mPa·s]
x1 = 0.0534	3.315 ± 0.037
x1 = 0.1054	3.242 ± 0.035
x1 = 0.1689	3.141 ± 0.033
x1 = 0.2256	3.041 ± 0.03
x1 = 0.2958	2.907 ± 0.028
x1 = 0.3612	2.775 ± 0.025
x1 = 0.4502	2.587 ± 0.022
x1 = 0.5246	2.423 ± 0.02
x1 = 0.6589	2.112 ± 0.017
x1 = 0.7421	1.908 ± 0.015
x1 = 0.8046	1.747 ± 0.014
x1 = 0.8645	1.584 ± 0.013
x1 = 0.9472	1.34 ± 0.013

CN(C)c1ccccc1 + CC(C)=O
viscosity [mPa·s], 101 kPa
Conditions	303.15 K	308.15 K
x1 = 0.0782	0.409 ± 0.019	0.374 ± 0.018
x1 = 0.1356	0.494 ± 0.021	0.448 ± 0.02
x1 = 0.1965	0.584 ± 0.024	0.535 ± 0.022
x1 = 0.2551	0.668 ± 0.026	0.614 ± 0.025
x1 = 0.3205	0.757 ± 0.029	0.698 ± 0.027
x1 = 0.3921	0.844 ± 0.032	0.781 ± 0.03
x1 = 0.4724	0.925 ± 0.035	0.857 ± 0.032
x1 = 0.5558	0.992 ± 0.037	0.921 ± 0.035
x1 = 0.6214	1.033 ± 0.038	0.958 ± 0.036
x1 = 0.7086	1.072 ± 0.039	0.995 ± 0.037
x1 = 0.7784	1.095 ± 0.04	1.018 ± 0.038
x1 = 0.8565	1.118 ± 0.041	1.046 ± 0.039
x1 = 0.9221	1.138 ± 0.041	1.069 ± 0.039

CCCCN(CCCC)CCCC + CC(C)CC(C)(C)C
viscosity [mPa·s], 101 kPa
Conditions	x1 = 0.1106	x1 = 0.2474	x1 = 0.3947	x1 = 0.4958	x1 = 0.5982	x1 = 0.793	x1 = 0.8938
303.15 K	0.505 ± 0.0057	0.5839 ± 0.0061	0.6783 ± 0.0066	0.7486 ± 0.007	0.8256 ± 0.0075	0.9844 ± 0.0085	1.072 ± 0.009
313.15 K	0.4465 ± 0.0054	0.5109 ± 0.0057	0.5884 ± 0.0062	0.6462 ± 0.0065	0.7101 ± 0.0068	0.8423 ± 0.0076	0.9171 ± 0.008

CC(=O)CC(C)=O + CC(C)CCO
298.15 K, 101 kPa
Conditions	viscosity [mPa·s]
x1 = 0.1	2.622 ± 0.023
x1 = 0.2	1.997 ± 0.02
x1 = 0.3	1.558 ± 0.018
x1 = 0.4	1.26 ± 0.017
x1 = 0.5	1.063 ± 0.016
x1 = 0.6	0.933 ± 0.016
x1 = 0.7	0.844 ± 0.015
x1 = 0.8	0.778 ± 0.015
x1 = 0.9	0.729 ± 0.015

CC(C)(C)Br + CC(C)CO
viscosity [mPa·s], 101.3 kPa
Conditions	x1 = 0.1028	x1 = 0.2047	x1 = 0.3013	x1 = 0.4041	x1 = 0.5068	x1 = 0.6029	x1 = 0.7033	x1 = 0.8031	x1 = 0.905
298.15 K	2.582 ± 0.02	2.021 ± 0.017	1.64 ± 0.014	1.351 ± 0.012	1.138 ± 0.011	0.9943 ± 0.0099	0.8866 ± 0.0093	0.8146 ± 0.009	0.757 ± 0.0088
313.15 K	1.718 ± 0.016	1.405 ± 0.013	1.168 ± 0.011	0.9825 ± 0.0094	0.8486 ± 0.0084	0.7553 ± 0.0078	0.688 ± 0.0074	0.6382 ± 0.0073	0.6044 ± 0.0072

CN(C)c1ccccc1 + CC(C)CO
303.15 K, 101 kPa
Conditions	viscosity [mPa·s]
x1 = 0.0545	2.804 ± 0.019
x1 = 0.1056	2.755 ± 0.019
x1 = 0.1875	2.663 ± 0.018
x1 = 0.2546	2.576 ± 0.018
x1 = 0.3526	2.434 ± 0.017
x1 = 0.4278	2.316 ± 0.016
x1 = 0.5047	2.189 ± 0.016
x1 = 0.5869	2.044 ± 0.015
x1 = 0.6514	1.926 ± 0.015
x1 = 0.7348	1.767 ± 0.014
x1 = 0.8025	1.628 ± 0.013
x1 = 0.8621	1.501 ± 0.013
x1 = 0.9285	1.345 ± 0.012
